Earlier results, collected in paper PMC10994248 (The Oncologist, 2024).

Tested on: FGFR2 fusion or rearranged cholangiocarcinoma
Conditions: after failure of first-line chemotherapy ref 20-22; cited from earlier work

SMILES	Objective response rate
CCN1C(=O)N(c2c(F)c(OC)cc(OC)c2F)Cc2cnc3[nH]c(CN4CCOCC4)cc3c21 [pemigatinib]	36%
CCN1CCN(c2ccc(Nc3cc(N(C)C(=O)Nc4c(Cl)c(OC)cc(OC)c4Cl)ncn3)cc2)CC1 [infigratinib]	23%
